From ChEMBL document CHEMBL2150986, “Synthesis and biological evaluation of 1-benzylidene-3,4-dihydronaphthalen-2-one as a new class of microtubule-targeting agents” (J Med Chem, 2012) come the findings set out here.

One assay deals with CCRF-CEM. Kind of assay: Cytotoxicity against human CEM cells after 72 hrs by MTT assay. Type of assay: functional, cell-based.
For a further assay, the target named is Tubulin (Sus scrofa, UniProt P02554+P02550). Kind of assay: Inhibition of porcine brain tubulin assembly measured every 1 min for 60 mins by turbidimetric analysis.
In a further assay the test system is HCT-116. Kind of assay: cells. The note with it: Homo sapiens, HCT-116, 72 h.
In a further assay the test system is MDA-MB-435. Kind of assay: cells. The note with it: Homo sapiens, MDA-MB-435, 72 h.

pIC50: −log10 of the molar value.

The pIC50 is −log10 of the IC50, conventionally taken in molar units. Read a high pIC50 as a small IC50. By IC50 is commonly meant the concentration at which inhibition is half-maximal. A high value points to lower potency.

Description for MDA-MB-435: Cytotoxicity against human MDA-MB-435 cells after 72 hrs by MTT assay

As for `COc1ccc2c(c1)/C(=C\c1cc(OC)c(OC)c(OC)c1)C(=O)CC2`, the negative-log IC50 (pIC50) with CCRF-CEM is 9.00; in the assay with HCT-116, 6.29; in the assay on MDA-MB-435 it was 6.47. This molecule came in with an IC50 against Tubulin of 9630 nM.
Take `COc1ccc(/C=C2/C(=O)CCc3cc(OC)ccc32)cc1`: the pIC50 in the assay on CCRF-CEM is 6.96; in the assay with HCT-116 it was 6.07; in the assay on MDA-MB-435 it was 6.68. The IC50 against Tubulin worked out at 25820 nM.
Take `COc1ccc2c(c1)CCC(=O)/C2=C/c1ccc(OC)c(OC)c1OC`: the negative-log IC50 (pIC50) is 6.07 with CCRF-CEM, 5.77 in the assay with HCT-116 and 6.02 with MDA-MB-435. This molecule showed a half-inhibitory concentration (IC50) against Tubulin of 25780 nM.
For `COc1ccc2c(c1)CCC(=O)/C2=C/c1ccc(OC)c(OC)c1`, in that order: 7.14, 6.89, 6.70 and 6420 nM.
Take `COc1cccc2c1CCC(=O)/C2=C/c1cc(OC)c(OC)c(OC)c1`: the values for the negative-log IC50 (pIC50) with CCRF-CEM, with HCT-116 and in the assay with MDA-MB-435 were 5.66, 5.91 and 6.21, respectively. The molecule further had a half-maximal inhibitory concentration (IC50) against Tubulin of 18680 nM.
On to `COc1ccc(/C=C2/C(=O)CCc3c(OC)cccc32)cc1`, for which the values for the negative logarithm of the IC50 (pIC50) in the assay on CCRF-CEM, in the assay on HCT-116 and with MDA-MB-435 were 5.58, 5.45 and 5.86, respectively.
On to `COc1ccc2c(c1)CCC(=O)/C2=C/c1ccc(O)c(OC)c1`, for which the pIC50 in the assay on CCRF-CEM was 5.24; in the assay on HCT-116, 5.12; in the assay with MDA-MB-435 it was 5.35.
For `COc1ccc2c(c1)/C(=C\c1ccc(C(F)(F)F)cc1)C(=O)CC2`, in that order: below 5.00, 5.21 and 5.19.
On to `COc1ccc2c(c1)CCC(=O)/C2=C/c1ccc(OC)c(O)c1`, for which the pIC50 in the assay with CCRF-CEM is 6.92; with HCT-116 it was 6.49; in the assay with MDA-MB-435, 6.20.
